Measured values as given in patent US9511061B2, “Incontinence treatment methods” (IXALTIS, priority 2005, dated 2016).
pIC50, pKi: −log10 of the molar value.

Assays:
adrenergic receptors α1 = assay: Affinity for adrenergic receptors; format: binding
[1] = test system: anaesthetized female rabbits under conditions of vesical irritation; assay: Activity of the striated anal sphincter (EMG-SAS) and vesical capacity in anaesthetized female rabbits under vesical irritation by diluted acetic acid; format: in vivo, rabbit
Excerpt: The effect of 4-[(2-naphthalenyl)-methoxy]-piperidine (compound A) and of its solvent (NaCl 0.9%) on the electromyographic activity of the striated anal sphincter (EMG-SAS), used as a marker of the activity of the urethral sphincter, and on the vesical capacity (VC) was studied in vivo in anaesthetized female rabbits under conditions of vesical irritation induced by intra-vesical perfusion of diluted acetic acid (Perez Martinez et al., 2006 and Haab et al., 2006). […] 16 New Zealander female white rabbits (2.5-3.5 kg) anaesthetized by intramuscular injection of a mixture of ketamin (25 mg/kg) and sylazin (10 mg/kg), were subject to cystostomy. After laparotomy by median incision, a catheter was introduced at the dome of the bladder and held in place by a purse suture. A multiperforable plug was placed at the end of the catheter, and then the catheter was internalized subcutaneously and attached at the abdomen with a silk ligature. 3 days after cystotomy, cystomanometry was performed on animals anaesthetized with halothane (2-3%). A T-tube was connected at the multiperformable plug, and then connected to a pressure sensor (Letica, PanLab) and to a micro-pump allowing perfusion of the bladder (Razel 99, Scientific Instruments). […] The micturitional profile was continuously recorded by means of a data acquisition system (PowerLab 4/25, PanLab) and the different urodynamic parameters, including vesical capacity (VC), were determined. […] The electric signal, amplified and filtered (bandwidth 1 Hz-5 kHz) was continuously recorded by means of the data acquisition system. EMG-SAS was measured during the phase for filling the bladder, in order to get rid of the parasitics related to perineal movements occurring during micturition.
A catheter was implanted at the vein of the ear in order to allow administration of compound A or of its solvent (NaCl 0.9%) in a volume of 1 mL. […] During a stabilization period (SP) of at least 60 minutes, during which the bladder was perfused, in order to induce regular micturitional cycles, two consecutive doses (1 and 3 mg/kg of compound A or of solvent were administered intravenously, at intervals of 40 minutes. For each of the tested doses, the effects of the compound A and of its solvent on EMG-SAS and on VC were expressed as a percentage of the stabilization period (mean±standard error of mean). During the stabilization period, the parameters obtained in both experimental groups (compound A and solvent) were the same (p>0.05; Kruskal-Wallis test): for EMG-SAS, 1.76±1.04 (n=8) and 1.41±0.59 activity peaks/minute (n=8), for the compound A and its solvent and for VC, respectively, 21.63±4.92 (n=8) and 18.31±2.90 mL (n=8), for the compound A and its solvent respectively. […]

[2] = test system: anaesthetized female rats under vesical irritation conditions; assay: Vesical capacity in anaesthetized female rats under vesical irritation by diluted acetic acid; format: in vivo, rat; conditions: 2 mg/kg i.v., mean±SEM, n=8
Experimental: After laparotomy, a bursa was formed at the dome of the bladder, and then a catheter was introduced and ligatured at this bursa. A catheter was implanted at the jugular vein in order to allow administration of the compound A or its solvent. Cystomanometry was performed on the animals placed beforehand on a heating plate, in order to maintain their body temperature around 37° C. A 3-way valve was positioned at the end of the vesical catheter and then connected to a pump allowing perfusion of the bladder (Model “11” plus, Harvard Apparatus) and to a pressure sensor (MX 860/866 Novatrans, Medex Medical). Diluted acetic acid (0.3%) held at room temperature was perfused into the bladder (3 mL/h) in order to induce successive micturitions under vesical irritation conditions. The micturitional profile was continuously recorded by means of a data acquisition system (MacLab/8^e, AD Instruments) and the different urodynamic parameters, including vesical capacity (VC) were determined. […] The compound A (2 mg/kg) or its solvent were then injected intravenously in a volume of 1 mL administered within 5 minutes by means of a syringe pump (Model A-99, Fisher Bioblock Scientific). The effects of the compound A and of its solvent on VC were evaluated at times, 20, 40 and 60 minutes after administration and expressed as a percentage of variation of the basal value (mean±standard error of mean). In both experimental groups (compound A and solvent), the basal values of VC were the same (p>0.05; analysis of variance): 0.045±0.005 mL and 0.042±0.006 mL for the solvent (n=11) and the compound A (n=8), respectively. […] (see compound A group (n=8) in FIG. 2).

human 5-HT2C receptor = human 5-HT2C receptor (Homo sapiens (Human), UniProt P28335); assay: Cellular functional test ([35S]GTPγS binding) on cloned human 5-HT2C receptor in CHO cells; format: cell-based
Chain of human 5-HT2C receptor (P28335 33-458): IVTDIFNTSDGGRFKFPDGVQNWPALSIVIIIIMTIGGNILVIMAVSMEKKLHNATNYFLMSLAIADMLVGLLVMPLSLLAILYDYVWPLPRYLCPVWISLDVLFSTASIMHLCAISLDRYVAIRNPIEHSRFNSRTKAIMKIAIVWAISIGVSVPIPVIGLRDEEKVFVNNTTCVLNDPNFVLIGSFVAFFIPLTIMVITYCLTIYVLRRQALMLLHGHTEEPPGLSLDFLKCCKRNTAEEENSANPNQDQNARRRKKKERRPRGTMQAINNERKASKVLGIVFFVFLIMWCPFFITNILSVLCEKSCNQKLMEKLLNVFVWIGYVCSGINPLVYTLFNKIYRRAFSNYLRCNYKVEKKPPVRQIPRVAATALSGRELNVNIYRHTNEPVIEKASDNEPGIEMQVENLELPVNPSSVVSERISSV
Experimental: The agonistic and antagonistic activities of the compound A were evaluated in vitro on the human 5-HT2C receptor expressed in Chinese hamster ovarian cells (CHO cells) in a range of concentrations comprised between 1 nM and 100 μM by quantitation of the binding of the specific ligand of the receptor, [^35S]GTPγS, according to a method adapted from Adlersberg (2000) and from Cussac (2002).

adrenergic receptors α2 = assay: Affinity for adrenergic receptors; format: binding
muscarinic receptors = assay: Affinity for muscarinic receptors; format: binding
5-HT1A = 5-HT1A (Homo sapiens (Human), UniProt P08908); assay: Binding test on cloned human serotoninergic receptor
Chain of 5-HT1A (P08908 whole entry): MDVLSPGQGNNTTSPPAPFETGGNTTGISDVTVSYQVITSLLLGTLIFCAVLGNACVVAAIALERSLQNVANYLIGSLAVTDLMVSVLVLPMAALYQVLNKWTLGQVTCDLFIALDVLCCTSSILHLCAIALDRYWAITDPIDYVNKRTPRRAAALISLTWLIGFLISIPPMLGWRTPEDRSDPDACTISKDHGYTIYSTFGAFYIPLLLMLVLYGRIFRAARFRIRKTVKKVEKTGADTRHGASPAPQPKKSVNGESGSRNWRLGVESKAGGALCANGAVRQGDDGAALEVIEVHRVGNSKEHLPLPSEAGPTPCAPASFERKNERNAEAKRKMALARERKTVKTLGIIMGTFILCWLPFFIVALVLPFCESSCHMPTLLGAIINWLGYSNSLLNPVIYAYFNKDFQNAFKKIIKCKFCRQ
Experimental: (§1) The affinity of the compound A was evaluated in vitro on 8 cloned human serotoninergic receptors by measuring the specific binding of the ligands to the corresponding receptors according to methods adapted from Mulheron (1994), Bryant (1996), Choi (1994), Hope (1996), Mialet (2000), Rees (1994) and Shen (1993).

5-HT2C (agonist) = 5-HT2C (agonist) (Homo sapiens (Human), UniProt P28335); assay: as above; conditions: 5-HT2C (agonist) site
Chain of 5-HT2C (agonist) (P28335 33-458): as the sequence (P28335 33-458) above
Experimental: as §1

5-HT5A = 5-HT5A (Homo sapiens (Human), UniProt P47898); assay: as above
Chain of 5-HT5A (P47898 whole entry): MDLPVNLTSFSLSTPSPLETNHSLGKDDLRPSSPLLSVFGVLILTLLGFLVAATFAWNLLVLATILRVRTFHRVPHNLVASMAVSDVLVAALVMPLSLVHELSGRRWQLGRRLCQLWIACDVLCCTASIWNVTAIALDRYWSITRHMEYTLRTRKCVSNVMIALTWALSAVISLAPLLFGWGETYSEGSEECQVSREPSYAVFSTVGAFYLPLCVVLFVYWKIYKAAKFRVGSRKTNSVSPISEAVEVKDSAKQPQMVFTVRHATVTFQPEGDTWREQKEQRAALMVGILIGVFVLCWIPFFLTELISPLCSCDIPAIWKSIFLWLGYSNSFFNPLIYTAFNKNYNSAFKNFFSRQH
Experimental: as §1

5-HT7 = 5-HT7 (Homo sapiens (Human), UniProt P34969); assay: as above
Chain of 5-HT7 (P34969 whole entry): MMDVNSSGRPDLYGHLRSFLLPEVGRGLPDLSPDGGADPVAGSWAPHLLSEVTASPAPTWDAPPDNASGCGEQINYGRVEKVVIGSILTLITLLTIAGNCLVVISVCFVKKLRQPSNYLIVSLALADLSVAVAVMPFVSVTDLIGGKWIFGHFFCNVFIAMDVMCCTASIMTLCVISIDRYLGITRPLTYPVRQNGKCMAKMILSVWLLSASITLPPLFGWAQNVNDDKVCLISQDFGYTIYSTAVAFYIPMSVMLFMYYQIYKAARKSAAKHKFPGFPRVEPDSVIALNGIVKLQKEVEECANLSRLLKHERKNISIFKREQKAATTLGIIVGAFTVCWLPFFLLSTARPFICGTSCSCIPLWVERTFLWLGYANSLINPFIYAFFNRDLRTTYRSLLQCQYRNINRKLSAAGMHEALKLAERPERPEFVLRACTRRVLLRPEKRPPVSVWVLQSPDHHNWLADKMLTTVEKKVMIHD
Experimental: as §1

5-HT2A (agonist) = 5-HT2A (agonist) (Homo sapiens (Human), UniProt P28223); assay: as above; conditions: 5-HT2A (agonist) site
Chain of 5-HT2A (agonist) (P28223 whole entry): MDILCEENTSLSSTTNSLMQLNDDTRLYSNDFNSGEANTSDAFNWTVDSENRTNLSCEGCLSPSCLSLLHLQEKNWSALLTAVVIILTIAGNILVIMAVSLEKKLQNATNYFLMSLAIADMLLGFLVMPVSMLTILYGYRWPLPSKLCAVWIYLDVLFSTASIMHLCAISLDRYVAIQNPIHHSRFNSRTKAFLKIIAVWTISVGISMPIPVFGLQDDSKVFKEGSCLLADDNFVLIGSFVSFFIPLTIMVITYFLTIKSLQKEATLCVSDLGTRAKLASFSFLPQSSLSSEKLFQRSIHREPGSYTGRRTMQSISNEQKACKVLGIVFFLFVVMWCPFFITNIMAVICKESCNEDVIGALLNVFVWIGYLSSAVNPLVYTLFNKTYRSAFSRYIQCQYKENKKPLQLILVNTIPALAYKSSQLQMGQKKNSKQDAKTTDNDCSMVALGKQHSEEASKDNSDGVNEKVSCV
Experimental: as §1

5-HT3 = 5-HT3 (Homo sapiens (Human), UniProt P46098); assay: as above
Chain of 5-HT3 (P46098 24-478): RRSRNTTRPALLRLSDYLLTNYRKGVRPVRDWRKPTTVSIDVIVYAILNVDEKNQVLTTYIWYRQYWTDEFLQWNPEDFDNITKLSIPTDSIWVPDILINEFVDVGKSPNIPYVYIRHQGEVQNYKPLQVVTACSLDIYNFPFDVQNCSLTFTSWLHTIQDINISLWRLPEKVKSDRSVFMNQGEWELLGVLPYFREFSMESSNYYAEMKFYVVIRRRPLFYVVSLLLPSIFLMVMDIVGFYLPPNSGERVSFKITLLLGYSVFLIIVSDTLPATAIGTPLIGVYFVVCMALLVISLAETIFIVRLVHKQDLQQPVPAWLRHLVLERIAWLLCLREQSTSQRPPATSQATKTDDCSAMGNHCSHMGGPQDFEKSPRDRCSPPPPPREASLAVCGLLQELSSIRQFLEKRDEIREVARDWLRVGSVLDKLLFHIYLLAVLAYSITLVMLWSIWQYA
Experimental: as §1

5-HT4e = 5-HT4e (Homo sapiens (Human), UniProt Q13639); assay: as above
Chain of 5-HT4e (Q13639 other isoform, or with tags, fused parts or gaps): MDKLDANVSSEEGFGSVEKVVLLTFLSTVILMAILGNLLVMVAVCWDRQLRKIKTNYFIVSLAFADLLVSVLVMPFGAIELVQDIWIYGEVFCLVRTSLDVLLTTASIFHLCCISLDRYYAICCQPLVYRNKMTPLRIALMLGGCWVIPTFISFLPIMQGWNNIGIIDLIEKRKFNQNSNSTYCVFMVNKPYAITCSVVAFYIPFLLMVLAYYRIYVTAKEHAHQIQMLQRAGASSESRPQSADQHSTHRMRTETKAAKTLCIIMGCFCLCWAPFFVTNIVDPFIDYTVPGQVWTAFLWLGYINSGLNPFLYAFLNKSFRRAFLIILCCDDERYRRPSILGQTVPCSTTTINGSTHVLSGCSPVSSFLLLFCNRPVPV
Experimental: as §1

5-HT2B (agonist) = 5-HT2B (agonist) (Homo sapiens (Human), UniProt P41595); assay: as above; conditions: 5-HT2B (agonist) site
Chain of 5-HT2B (agonist) (P41595 whole entry): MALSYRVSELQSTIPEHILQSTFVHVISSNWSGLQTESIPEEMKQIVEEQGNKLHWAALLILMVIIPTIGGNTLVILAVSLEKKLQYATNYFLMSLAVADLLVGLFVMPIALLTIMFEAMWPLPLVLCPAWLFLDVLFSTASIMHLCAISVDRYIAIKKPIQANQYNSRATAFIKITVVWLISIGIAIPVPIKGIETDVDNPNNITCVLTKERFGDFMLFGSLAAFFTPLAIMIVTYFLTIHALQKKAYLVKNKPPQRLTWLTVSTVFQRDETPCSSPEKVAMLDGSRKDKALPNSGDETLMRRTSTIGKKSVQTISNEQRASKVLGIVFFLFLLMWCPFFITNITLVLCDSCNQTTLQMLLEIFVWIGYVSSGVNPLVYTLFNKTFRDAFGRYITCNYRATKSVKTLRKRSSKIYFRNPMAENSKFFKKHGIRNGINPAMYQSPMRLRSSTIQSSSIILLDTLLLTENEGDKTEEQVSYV
Experimental: as §1

[3] = test system: recapture of serotonine (5-HT) as compared with that of norepinephrine (NE); conditions: selectivity, Scatton 1988; cited from earlier work
adrenergic receptors β = assay: Affinity for adrenergic receptors; format: binding
human detrusor muscle = assay: Electrically stimulated human detrusor muscle strips in vitro
Experimental: The effect of the compound A and of its solvent (Krebs solution) was tested in vitro on bladder strips taken on two male patients within the scope of a radical cystectomy because of an urothelial carcinoma. The strips were mounted in baths with isolated organs, containing a Krebs solution, heated to 37° C. and oxygenated with carbogen (95% O2 and 5% CO2). After a 60 minute stabilization period, the viability of the strips was tested by performing a contraction with 80 mM KCl. After 30 minutes of wash-out and stabilization, the strips were submitted to electric field stimulation, in order to cause neurogenic contractions. The electric stimulation parameters used were the following: frequency: 30 Hz, maximum voltage, pulse duration 0.1 ms, 5 second pulse trains every 100 s. After stabilization of the neurogenic response (about 30 minutes after beginning of the electric stimulation), a range of cumulative concentration-response curves for the compound A was obtained between 0.01-100 μM. It was shown that from 10 μM, the compound A inhibits in a concentration-dependent way, the contractile response of the detrusor muscle strips to electric stimulation with inhibition percentages of 20.1±4.7% at 10 μM, 41.7±5.2% at 30 μM and 80.8±6.8% at 100 μM. Tested under the same conditions, the solvent of the compound A has an inhibiting effect of the order of 10% on the contractions of the detrusor muscle.

[4] = test system: 5-HT7 receptor in isolated rat bladder; assay: Potentialization by serotonin of the neurogenic response of isolated rat bladder (5-HT7 antagonistic functional test); conditions: after incubation with 10 μM of compound A; n=6; solvent 52.7±7.3%
Experimental: The effect of the compound A and of its solvent (Krebs solution) on the potentialization by serotonin of the neurogenic response of isolated rat bladder was studied in vitro. Strips of detrusor muscle taken from Wistar female rats (250-300 grams) were mounted in baths with isolated organs, containing a Krebs solution, heated to 37° C. and oxygenated with carbogen (95% O2 and 5% CO2). After a 60 minute stabilization period, contraction with 80 mM KCl was achieved. After 30 minutes of wash-out and stabilization, the strips were submitted to electric field stimulation, in order to cause neurogenic contractions. The electric stimulation parameters used were the following: frequency: 5 Hz, maximal voltage, pulse duration 0.3 ms, 10 second pulse trains every 60 s. The compound A and its solvent are incubated for 60 minutes, 30 minutes without electric stimulation and 30 minutes during the phase for stabilizing the neurogenic response. After stabilization, a 5-HT cumulative concentration-response curve range was achieved between 0.01-100 μM.

[5] = test system: recapture of serotonin as compared with that for dopamine (DA); conditions: selectivity, Scatton 1988; cited from earlier work
[6] = 1 mg/kg intravenously, relative to stabilization period

pIC50 (adrenergic receptors α1): 4.40
antagonistic activity (human 5-HT2C receptor; 10 μM): 18%
agonistic activity (human 5-HT2C receptor; 3.10^−5 M (plateau)): 44%
agonistic activity (human 5-HT2C receptor; 10^−4 M (plateau)): 42%
pIC50 (human 5-HT2C receptor; agonistic activity, [35S]GTPγS, CHO cells, read-out: IC50 (partial agonist for the 5-HT2C receptor)): 5.82
pIC50 (adrenergic receptors α2): 4.15
pIC50 (muscarinic receptors): 4.00
inhibition of the specific binding of the control (5-HT1A): 14%
pIC50 (5-HT2C (agonist)): 6.60
pKi (5-HT2C (agonist); Cheng Prusoff): 6.70
inhibition of the specific binding of the control (5-HT5A): 1%
pIC50 (5-HT7): 5.14
pKi (5-HT7; Cheng Prusoff): 5.59
pIC50 (5-HT2A (agonist)): 6.00
pKi (5-HT2A (agonist); Cheng Prusoff): 6.21
pIC50 (5-HT3): 5.85
pKi (5-HT3; Cheng Prusoff): 6.14
pIC50 (5-HT4e): 5.33
pKi (5-HT4e; Cheng Prusoff): 5.80
pIC50 (5-HT2B (agonist)): 6.00
pKi (5-HT2B (agonist); Cheng Prusoff): 6.01
pIC50 (adrenergic receptors β): 4.00
Structure (SMILES): c1ccc2cc(COC3CCNCC3)ccc2c1 [Compound A, 4-[(2-naphthalenyl)-methoxy]-piperidine]
effect on EMG-SAS (electromyographic activity of the striated anal sphincter) [1, 6]: did not induce any significant effect
effect on vesical capacity (VC) [1, 6]: did not induce any significant effect
increase in EMG-SAS, percentage of the stabilization period ([1]; 3 mg/kg intravenously, mean±SEM, n=7, p=0.018): 1,521.90±966.61%
increase in VC, percentage of the stabilization period ([1]; 3 mg/kg intravenously, mean±SEM, n=8): 123.29±11.62%
increase in VC, percentage of variation of the basal value ([2]; 20 minutes after administration): 46.25±16.40%
increase in VC, percentage of variation of the basal value ([2]; 40 minutes after administration): 44.61±17.51%
increase in VC, percentage of variation of the basal value ([2]; 60 minutes after administration): 60.34±17.8%
antagonistic activity (human 5-HT2C receptor; between 1 nM and 1 μM): Without any significant antagonistic activity
IC50 NE/HT ratio [3]: 89
inhibition of the contractile response of detrusor muscle strips to electric stimulation (human detrusor muscle; 10 μM): 20.1±4.7%
inhibition of the contractile response of detrusor muscle strips to electric stimulation (human detrusor muscle; 30 μM): 41.7±5.2%
inhibition of the contractile response of detrusor muscle strips to electric stimulation (human detrusor muscle; 100 μM): 80.8±6.8%
maximum response of 5-HT, % of the reference contraction induced by 80 mM KCl [4]: 18.7±3.2%
IC50 DA/HT ratio [5]: 188
